Source: ChEMBL document CHEMBL1201862, “PubChem BioAssay data set” (2004)
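Protocol summary: plate cells (96-well), add compound at 5 concentrations, incubate 48 h, interpolate endpoints linearly. GI50 = concentration required for 50% inhibition of growth.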 Calls of active or inactive are those of the source. No stated cut-off is given here; in the data, active = GI50 up to about 1.1 µM and inactive = higher.

Columns and labels:
Assay in all cases: NCI tumour cell line growth inhibition, 48 h
[1] = test system: K562
[2] = test system: CAKI-1
[3] = test system: U-251
[4] = test system: SF-268
[5] = test system: HT-29
[6] = test system: SK-MEL-5
[7] = test system: SK-MEL-2
[8] = test system: KM12
[9] = test system: RXF 393
[10] = test system: 786-0
[11] = test system: T47D
[12] = test system: SN12C
[13] = test system: SK-MEL-28
[14] = test system: SR
[15] = test system: NCI-H522
[16] = test system: RPMI-8226
[17] = test system: SF-539
[18] = test system: MOLT-4
[19] = test system: A549
[20] = test system: LOX IMVI
[21] = test system: MCF7
[22] = test system: SNB-75
[23] = test system: ACHN
[24] = test system: NCI-H460
[25] = test system: PC-3
[26] = test system: CCRF-CEM
[27] = test system: OVCAR-8
[28] = test system: Hs-578T
[29] = test system: IGROV-1
[30] = test system: TK-10
[31] = test system: SNB-19
[32] = test system: NCI-H23
[33] = test system: MDA-MB-231
[34] = test system: OVCAR-4
[35] = test system: SK-OV-3
[36] = test system: SF-295
[37] = test system: HOP-92
[38] = test system: UACC-62
[39] = test system: HL-60
[40] = test system: HCT-116
[41] = test system: OVCAR-5
[42] = test system: BT-549
[43] = test system: UO-31
[44] = test system: COLO 205
[45] = test system: MDA-MB-435
[46] = test system: HCT-15
[47] = test system: EKVX
[48] = test system: SW-620
[49] = test system: MDA-N
[50] = test system: HCC 2998
[51] = test system: UACC-257
[52] = test system: OVCAR-3
[53] = test system: HOP-62
[54] = test system: NCI/ADR-RES
[55] = test system: Malme-3M
[56] = test system: A498
[57] = test system: NCI-H226
[58] = test system: DU-145

CC1(C)C=Cc2c(cc(O)c3c(=O)c4cc(Cl)ccc4[nH]c23)O1 was tested, and the GI50 [1] was 1.81 µM (inactive), the GI50 [2] was 3.94 µM (inactive) and the GI50 [3] was 2.74 µM (inactive). For the same compound, the GI50 [4] was 3.86 µM (inactive), the GI50 [5] was 2.4 µM (inactive) and the GI50 [6] was 1.92 µM (inactive). The GI50 [7] was 2.69 µM (inactive), the GI50 [8] was 2.2 µM (inactive) and the GI50 [9] was 3.89 µM (inactive). The GI50 [10] was 3.84 µM (inactive), the GI50 [11] was 3.69 µM (inactive) and the GI50 [12] was 3.24 µM (inactive). The GI50 [13] was 4 µM (inactive), the GI50 [14] was 3.24 µM (inactive) and the GI50 [15] was 3.29 µM (inactive). For the same compound, the GI50 [16] was 2.29 µM (inactive), the GI50 [17] was 4.13 µM (inactive) and the GI50 [18] was 2.54 µM (inactive). The GI50 [19] was 3.1 µM (inactive), the GI50 [20] was 3.29 µM (inactive) and the GI50 [21] was 2.88 µM (inactive). The GI50 [22] was 4.03 µM (inactive), the GI50 [23] was 2.42 µM (inactive) and the GI50 [24] was 1.98 µM (inactive). The GI50 [25] was 2.04 µM (inactive), the GI50 [26] was 3.08 µM (inactive) and the GI50 [27] was 3.98 µM (inactive). The GI50 [28] was 0.161 µM (active), the GI50 [29] was 5.31 µM (inactive) and the GI50 [30] was 4.5 µM (inactive). The GI50 [31] was 2.62 µM (inactive), the GI50 [32] was 2.3 µM (inactive) and the GI50 [33] was 3.33 µM (inactive). For the same compound, the GI50 [34] was 3.24 µM (inactive), the GI50 [35] was 2.72 µM (inactive) and the GI50 [36] was 2.84 µM (inactive). For the same compound, the GI50 [37] was 2.52 µM (inactive), the GI50 [38] was 2.58 µM (inactive) and the GI50 [39] was 2.84 µM (inactive). The GI50 [40] was 2.99 µM (inactive), the GI50 [41] was 1.91 µM (inactive) and the GI50 [42] was 2.63 µM (inactive). For the same compound, the GI50 [43] was 2.16 µM (inactive), the GI50 [44] was 4.43 µM (inactive) and the GI50 [45] was 3.35 µM (inactive). For the same compound, the GI50 [46] was 3.27 µM, the GI50 [47] was 0.469 µM (active) and the GI50 [48] was 3.55 µM (inactive). The GI50 [49] was 2.62 µM (inactive), the GI50 [50] was 3.62 µM (inactive) and the GI50 [51] was 2.87 µM (inactive). For the same compound, the GI50 [52] was 0.469 µM (active), the GI50 [53] was 4.08 µM (inactive) and the GI50 [54] was 1.68 µM (inactive). For the same compound, the GI50 [55] was 2.24 µM (inactive).
With Cn1nc(Cc2ccc(Cl)cc2)n(N)c1=O the GI50 [1] was > 100 µM (inactive), the GI50 [2] was > 100 µM (inactive) and the GI50 [3] was > 100 µM (inactive). For the same compound, the GI50 [4] was > 100 µM (inactive), the GI50 [5] was > 100 µM (inactive) and the GI50 [6] was > 100 µM (inactive). For the same compound, the GI50 [8] was > 100 µM (inactive), the GI50 [9] was > 100 µM (inactive) and the GI50 [10] was > 100 µM (inactive). For the same compound, the GI50 [11] was > 100 µM (inactive), the GI50 [56] was > 100 µM (inactive) and the GI50 [12] was > 100 µM (inactive). For the same compound, the GI50 [13] was > 100 µM (inactive), the GI50 [16] was > 100 µM (inactive) and the GI50 [17] was > 100 µM (inactive). For the same compound, the GI50 [18] was > 100 µM (inactive), the GI50 [19] was > 100 µM (inactive) and the GI50 [57] was > 100 µM (inactive). The GI50 [21] was > 100 µM (inactive), the GI50 [22] was > 100 µM (inactive) and the GI50 [23] was > 100 µM (inactive). For the same compound, the GI50 [24] was > 100 µM (inactive), the GI50 [25] was > 100 µM (inactive) and the GI50 [27] was > 100 µM (inactive). For the same compound, the GI50 [29] was > 100 µM (inactive), the GI50 [30] was > 100 µM (inactive) and the GI50 [31] was > 100 µM (inactive). For the same compound, the GI50 [32] was > 100 µM (inactive), the GI50 [33] was > 100 µM (inactive) and the GI50 [36] was > 100 µM (inactive). For the same compound, the GI50 [38] was 39.2 µM (inactive), the GI50 [40] was > 100 µM (inactive) and the GI50 [41] was > 100 µM (inactive). For the same compound, the GI50 [42] was > 100 µM (inactive), the GI50 [43] was > 100 µM (inactive) and the GI50 [45] was > 100 µM (inactive). For the same compound, the GI50 [46] was greater than 100 µM, the GI50 [48] was > 100 µM (inactive) and the GI50 [49] was > 100 µM (inactive). For the same compound, the GI50 [50] was > 100 µM (inactive), the GI50 [51] was > 100 µM (inactive) and the GI50 [54] was > 100 µM (inactive). The GI50 [55] was > 100 µM (inactive) and the GI50 [58] was > 100 µM (inactive).
With NC(CCC(=O)NC(CSC(=O)N(O)c1ccc(Br)cc1)C(=O)NCC(=O)O)C(=O)O (stereo unspecified) the GI50 [1] was > 50 µM (inactive), the GI50 [2] was > 50 µM (inactive) and the GI50 [3] was > 50 µM (inactive). The GI50 [4] was > 50 µM (inactive), the GI50 [5] was > 50 µM (inactive) and the GI50 [7] was > 50 µM (inactive). For the same compound, the GI50 [9] was > 50 µM (inactive), the GI50 [10] was > 50 µM (inactive) and the GI50 [12] was > 50 µM (inactive). The GI50 [13] was > 50 µM (inactive), the GI50 [17] was > 50 µM (inactive) and the GI50 [18] was > 50 µM (inactive). For the same compound, the GI50 [19] was > 50 µM (inactive), the GI50 [21] was > 50 µM (inactive) and the GI50 [23] was > 50 µM (inactive). For the same compound, the GI50 [24] was > 50 µM (inactive), the GI50 [25] was > 50 µM (inactive) and the GI50 [28] was 27.4 µM (inactive). For the same compound, the GI50 [32] was > 50 µM (inactive), the GI50 [33] was > 50 µM (inactive) and the GI50 [34] was > 50 µM (inactive). For the same compound, the GI50 [35] was > 50 µM (inactive), the GI50 [36] was > 50 µM (inactive) and the GI50 [41] was > 50 µM (inactive). The GI50 [42] was > 50 µM (inactive), the GI50 [43] was > 50 µM (inactive) and the GI50 [45] was > 50 µM (inactive). The GI50 [46] was greater than 50 µM, the GI50 [47] was > 50 µM (inactive) and the GI50 [48] was > 50 µM (inactive). The GI50 [49] was > 50 µM (inactive), the GI50 [50] was > 50 µM (inactive) and the GI50 [51] was > 50 µM (inactive). For the same compound, the GI50 [52] was > 50 µM (inactive), the GI50 [53] was > 50 µM (inactive) and the GI50 [54] was > 50 µM (inactive). The GI50 [58] was > 50 µM (inactive).
